Earlier results on 25 compounds are cited in patent US20190214145A1, “Method and systems for creating and screening patient metabolite profile to diagnose current medical condition, diagnose current treatment state and recommend new treatment regimen” (priority 2018, published 2019).

Test system in the first data set: not given
The following applies: upon inhalation, even in low concentrations.
In the case of `CC1=CCC(C(C)(C)O)CC1` (stereo not drawn) [α-terpineol], the Sedation result is on record as “deeply sedating”.

As for `CC(C)=CCCC(C)CCO` (centres unmarked) [Citronellol], the Sedation entry is reported as “deeply sedating”.

Test system in a further data set: not given
The following applies: vaporizing temperature.
As for `CC1=CCC(C(C)(C)O)CC1` (stereo not drawn) [α-terpineol], the BP is 217 °C.

Take `C=CC(=C)CCC=C(C)C` [β-myrcene]: the BP was 167 °C.

Consider `C=C(C)[C@H]1CC=C(C)CC1` [D-limonene], for which the BP was 177 °C.

For `C=C(C)[C@@H]1CCC(C)=C[C@H]1c1c(O)cc(CCCCC)c(C(=O)O)c1O` [CBDA], the BP was 120 °C.

Consider `CC12CCC(CC1)C(C)(C)O2` [1,8-cineole], for which the BP is 176 °C.

Regarding `CC1=CCC2C(C1)C2(C)C` (centres unmarked) [Δ-3-carene], the BP is 168 °C.

Turning to `O=c1cc(-c2ccc(O)cc2)oc2cc(O)cc(O)c12` [Apigenin], the BP was 178 °C.

For the compound `CC1(C)C2CCC1(C)C(O)C2` (centres unmarked) [Borneol], the BP was 210 °C.

On to `C=C(C)[C@@H]1CCC(C)=C[C@H]1c1c(O)cc(CCCCC)cc1O` [CBD, reference compound], for which the BP was 180 °C.

For `CCCCCc1cc(O)c2c(c1)OC(C)(C)[C@@H]1CCC(C)=C[C@@H]21` [Δ9THC], the BP was 157 °C.

`C=CC(C)(O)CCC=C(C)C` (centres unmarked) [Linalool]: the BP was 198 °C.

In the case of `CC(C)=C1CC[C@@H](C)CC1=O` [Pulegone], the BP was 224 °C.

With `C=C1CC/C=C(\C)CC[C@@H]2[C@@H]1CC2(C)C` [β-caryophyllene], the BP is 199 °C.

`CC1=CCC(O)(C(C)C)CC1` (centres unmarked) [Terpinol-4-ol]: the BP is 209 °C.

Regarding `CC1=CC[C@@H](C(C)(C)O)CC1` [α-terpinol], the BP was 156 °C.

Consider `CCCCCc1cc(O)c2c(c1)OC(C)(CCC=C(C)C)C=C2` (centres unmarked) [CBC], for which the BP was 220 °C.

In the case of `CCCCCc1cc2c(c(O)c1C(=O)O)C=CC(C)(CCC=C(C)C)O2` (centres unmarked) [CBCA], the BP is 145 °C.

As to `CCCCCc1cc2c(c(O)c1C(=O)O)[C@@H]1C=C(C)CC[C@H]1C(C)(C)O2` [Δ9THCA], the BP was 104 °C.

Turning to `COc1cc(-c2cc(=O)c3c(O)c(C/C=C(\C)CCC=C(C)C)c(O)cc3o2)ccc1O` [Cannflavin A], the BP is 182 °C.

On to `CC[C@H](CC[C@@H](C)[C@H]1CC[C@H]2[C@@H]3CC=C4C[C@@H](O)CC[C@]4(C)[C@H]3CC[C@]12C)C(C)C` [β-sitosterol], for which the BP was 134 °C.

`Cc1ccc(C(C)C)cc1` [P-cymene]: the BP was 177 °C.

Test system in the next data set: not given
The following applies: intravenous, amount equivalent to one cannabis cigarette.
Consider `CCCCCc1cc(O)c2c(c1)OC(C)(C)[C@@H]1CCC(C)=C[C@@H]21` [Δ9THC], for which the Heart rate result is “significantly increases”, the “Phosphoenolpyruvate (PEP)” value is reported as “decreases” and the “Systolic or diastolic arterial pressure” value is reported as “without any change”.

A further data set relates to submandibular gland. The following applies: rats, saliva from ducts of the submandibular gland.
`Cc1c(C(=O)c2cccc3ccccc23)c2cccc3c2n1[C@H](CN1CCOCC1)CO3` [WIN55212-2T]: the “Ca 2+ concentration of saliva” value is listed as “increase”, the “Other electrolytes of saliva” value is given as “no changes”, the Saliva flow rate entry was “significant decrease” and the “Total protein content of saliva” value is on record as “increase”.

For `CCCn1c(C)c(C(=O)c2cccc3ccccc23)c2ccccc21` [JWH015], the “Ca 2+ concentration of saliva” value was “increase”, the “Other electrolytes of saliva” value is on record as “no changes”, the Saliva flow rate result was “significant decrease” and the “Total protein content of saliva” value was “increase”.

In the case of `CCCCC/C=C\C/C=C\C/C=C\C/C=C\CCCC(=O)N[C@H](C)CO` [(R)-(+)-methanandamide], the “Ca 2+ concentration of saliva” value is “increase”, the “Other electrolytes of saliva” value is “no changes”, the Saliva flow rate result was “significant decrease” and the “Total protein content of saliva” value is recorded as “increase”.
